# Data reported in US20230265167A1, “COMPOSITIONS HAVING NEUROREGENERATIVE APPLICATIONS” (GRIFOLS WORLDWIDE OPERATIONS LIMITED, priority 2020, published 2023).
# Legend:
# SH-SY5Y cells [1] = test: Neurite outgrowth (differentiation) in SH-SY5Y cells, Tubulin Tracker imaging; type: cell-based, human
# Method: Transferrin is utilized in cell culture and in-vivo to deliver iron as a nutrient to cells. This is typically accomplished through the actions of holo-transferrin (HoloTf) binding to, and endocytosis by, its cognate receptor CD71, the transferrin receptor 1 (TfR1). Transferrin is typically believed to provide cells with iron as a means to promote and sustain metabolic activity. […] Induction of neuronal differentiation was assessed by morphological parameters of neurite formation (a key element typically used as a marker of neuronal differentiation, neuronal health, and function) according to the procedures of Agholme, 2010. J. of Alzheimer's Disease. Vol. 20:1p 069-108; and Dyberg et al., 2017. PNAS Vol 114 (32), E6603-E6612.
# (§1) Undifferentiated SH-SY5Y cells were seeded into 96 well clear bottom plates in media containing 0.1% FBS. A serum-free base media was utilized as recommended by the supplier for SH-SY5Y cells (Sigma, Cat #94030304-1VL). Twenty-four hours after seeding cells, a 3× stock solution of ApoTf, final concentrations indicated on the x-axis, in serum free base media was added to the cells. ApoTf was obtained and purified from pooled human plasma and dosed at a final concentration of 0.2 mg/mL.
# (§2) Cells were allowed to differentiate for 6 days. Neurite growth was assessed by imaging and image analysis. At the time of analysis, a 10× solution of Tubulin Tracker (Molecular Probes, T34075) and Hoechst 33342 (Molecular Probes #H3570) nuclear stain was prepared.
# Briefly, Tubulin Tracker dissolved in DMSO was diluted 1:1 with Pluronic F-127 and further diluted into HBSS to generate a 10× solution. Hoechst 33342 was added to the HBSS-Tubulin Tracker solution at 10 μg/mL to generate a 10× nuclear stain. The 10× staining solution (10 μL) was added directly to treated assay wells and incubated at 37° C. for 30 minutes. Following incubation, 110 μL of 0.4% Trypan Blue was added directly to assay wells and imaged on a Molecular Devices Nano imaging instrument. Nine images/well were acquired in the blue (Nuclei) and green (Tubulin) fluorescent channels for each image.
# (§3) After obtaining images, the MetaExpress Neurite Outgrowth analysis module (Molecular Devices) was used to identify cells, cell bodies, and quantify neurites. The total number of neurite branches were divided by the total number of cells imaged to account for different numbers of cells in each test well. The Outgrowth Fold Change was determined by setting the untreated control cells to a value of 1 with all other treatments shown relative to untreated control.
# Undifferentiated SH-SY5Y cells were seeded and treated as described in Example 1. Neurite growth was assessed by imaging and image analysis. At the time of analysis, a 10× solution of Tubulin Tracker (Molecular Probes, T34075) and Hoechst 33342 (Molecular Probes #H3570) nuclear stain was prepared. Briefly, Tubulin Tracker dissolved in DMSO was diluted 1:1 with Pluronic F-127 and further diluted into HBSS to generate a 10× solution. Hoechst 33342 was added to the HBSS-Tubulin Tracker solution at 10 μg/mL to generate at 10× nuclear stain. The 10× staining solution (10 μL) was added directly to treated assay wells and incubated at 37° C. for 30 minutes. Following incubation, 110 μL of 0.4% Trypan Blue was added directly to assay wells and imaged on a Molecular Devices Nano imaging instrument. Nine images/well were acquired in the blue (Nuclei) and green (Tubulin) fluorescent channels for each image. After obtaining images, the MetaExpress Neurite Outgrowth analysis module (Molecular Devices) was used to identify cell bodies and quantify neurites. The total number of neurite branches were divided by the total number of cells imaged to account for different numbers of cells. The Outgrowth Fold Change was determined by setting the untreated control to a value of 1 with all other treatments shown relative to untreated control. ApoTf was obtained and purified from pooled human plasma and dosed at a final concentration of 0.2 mg/mL. […]
# SH-SY5Y cells [2] = test: Cell number / proliferation of SH-SY5Y cells by imaging; type: cell-based, human
# Method: as §1, §2
# Briefly, Tubulin Tracker dissolved in DMSO was diluted 1:1 with Pluronic F-127 and further diluted into HBSS to generate a 10× solution. Hoechst 33342 was added to the HBSS-Tubulin Tracker solution at 10 μg/mL to generate a 10× nuclear stain. […]
# as §3, with “The total number of neurite branches were divided by the total number of cells imaged to account for different numbers of cells in each test well.” left out
# SH-SY5Y cells [3] = test: β-III-tubulin staining intensity in SH-SY5Y cells; type: cell-based, human; conditions: FIG. 1D
# Method: In this experiment, the SH-SY5Y cells were differentiated as described supra. At the time of analysis, cells were fixed with paraformaldehyde, stained for β-III-tubulin (R&D Systems, MAB1195), and imaged on a Molecular Devices Nano imaging instrument. Image analysis was performed by assessing the fluorescent intensity of cells stained with β-III-tubulin. Background from secondary antibody alone was subtracted from all values. Values are shown with standard deviations as “β-III-Tubulin Staining Intensity” for the indicated conditions.
# [4] = test system: C57BL/6J mice with transient MCAo; test: Neurogenesis in dentate gyrus of mice after transient MCAo (BrdU/DCX, BrdU/NeuN immunohistochemistry); type: in vivo, mouse; conditions: 350 mg/kg i.p. daily 7 days, vs saline; for number of new neuroblasts (BrdU+/DCX+ cells): FIG. 9A, two-week period; for number of newly formed mature neurons (BrdU+/NeuN+ cells): FIG. 9B, after 4 weeks
# Method: C57BL/6J mice (ca. 20 g) were anaesthetized under isoflurane and, after dissection, a 6.0 silicon-coated monofilament suture was inserted into the external carotid artery to occlude the middle cerebral artery (MCAo). The occlusion was carried out for 60 minutes under temperature control.
# Only animals with a ‘neuroscore’ of 4 or greater were considered for further testing (n=8-10 animals/group). At six hours post-occlusion, mice were injected daily with 350 mg/kg of Apo-transferrin (i.p.) or an equal volume of saline for a total of seven days, as well as with 50 mg/kg Bromodeoxyuridine (BrdU; Sigma-Aldrich Chemical, St. Louis, Mo.), both articles delivered by intraperitoneal administration. Weight changes were monitored daily.
# At the times indicated in Example 9, brains were prepared for analysis by transcardial perfusion with ice cold heparinized saline (heparin at 2.5 IU/ml) in order to remove blood from the brains. Fresh brains were removed leaving the right cerebellum attached to whole left-brain hemisphere to help orientate the brain block in sectioning. The whole left hemisphere block was placed in 4% paraformaldehyde in 0.1 M phosphate buffer (PB) for 24 hours at +4° C., then cryoprotected in 30% sucrose in 0.1 M PB for 2-3 days on a shaker at +4° C. The brain was then blotted to remove excess liquid, placed on top of a vial cork and frozen on top of liquid nitrogen; the block was then stored at −80° C. until cryostat sections are obtained. Neurogenesis was evaluated by immunohistochemistry using antibodies against BrdU and Doublecortin (DCX) to quantify new neuroblasts or against BrdU and NeuN to quantify new neurons in the dentate gyrus of the brain.
# HIF-1α = conditions: reported in US2016008437; cited from earlier work
substance,measurement,setting,value
"apo-transferrin: iron-free form of transferrin protein, obtained and purified from pooled human plasma",neurite outgrowth (Outgrowth Fold Change),"SH-SY5Y cells [1]; FIG. 1A, dose response up to 0.8 mg/mL, 6 days",able to induce neurite outgrowth in a dose dependent manner
same,"neurite/tubulin outgrowth, visual comparison to untreated control","SH-SY5Y cells [1]; FIG. 1C, 0.1 mg/mL",promoting induction of neurite/tubulin outgrowth
same,neurite outgrowth / differentiation versus concentration,"SH-SY5Y cells [1]; FIG. 3A, DFO versus ApoTf",continues to increase differentiation even up to 9.9 μM
same,neurogenesis (neurite outgrowth) of SH-SY5Y,"SH-SY5Y cells [1]; FIG. 3B, proteins at 0.2 mg/mL",did induce neurogenesis
same,"neurogenic effect, ApoTf in combination with Y-27632","SH-SY5Y cells [1]; FIG. 8, ApoTf 0.1 mg/mL plus Y-27632 50 μM",the neurogenic effect was synergistic
same,"differentiation / neurite outgrowth, combination with neurotrophic factors","SH-SY5Y cells [1]; FIGS. 7A-7D, ApoTf 0.1 mg/mL plus factor",synergistic effect
same,cell numbers (cell proliferation),"SH-SY5Y cells [2]; FIG. 1B, up to 0.8 mg/mL",induces a concentration-dependent increase in cell numbers
same,"cell proliferation, visual comparison to untreated control","SH-SY5Y cells [2]; FIG. 1C, 0.1 mg/mL",profound effect on promoting cell proliferation
same,β-III-Tubulin Staining Intensity,SH-SY5Y cells [3],caused an increase in β-III-tubulin protein
same,number of new neuroblasts (BrdU+/DCX+ cells),[4],increases the amount of neurogenesis
same,number of new neuroblasts (BrdU+/DCX+ cells),[4]; listed as ApoTf,increases the number of neuroblasts
same,number of newly formed mature neurons (BrdU+/NeuN+ cells),[4],increases the amount of neurogenesis
same,number of newly formed mature neurons (BrdU+/NeuN+ cells),[4]; listed as ApoTf,number of newly formed mature neurons are higher
same,HIF-1α production,HIF-1α,can induce HIF-1α production
